For data set [1], the target named is PI3Ka (Homo sapiens, UniProt P42336). Kind of data set: Z′-LYTE / ADAPTA kinase assay, PI3Ka. Type of data set: biochemical. An excerpt: (§1) The Z′-LYTE® biochemical assay employs a fluorescence-based, coupled-enzyme format and is based on the differential sensitivity of phosphorylated and non-phosphorylated peptides to proteolytic cleavage (FIG. 6). The peptide substrate is labeled with two fluorophores—one at each end—that make up a FRET pair. In the primary reaction, the kinase transfers the gamma-phosphate of ATP to a single tyrosine, serine or threonine residue in a synthetic FRET-peptide. In the secondary reaction, a site-specific protease recognizes and cleaves non-phosphorylated FRET-peptides. Phosphorylation of FRET-peptides suppresses cleavage by the Development Reagent. Cleavage disrupts FRET between the donor (i.e., coumarin) and acceptor (i.e., fluorescein) fluorophores on the FRET-peptide, whereas uncleaved, phosphorylated FRET-peptides maintain FRET. A ratiometric method, which calculates the ratio (the Emission Ratio) of donor emission to acceptor emission after excitation of the donor fluorophore at 400 nm, is used to quantitate reaction progress.
Chain of PI3Ka (P42336 whole entry): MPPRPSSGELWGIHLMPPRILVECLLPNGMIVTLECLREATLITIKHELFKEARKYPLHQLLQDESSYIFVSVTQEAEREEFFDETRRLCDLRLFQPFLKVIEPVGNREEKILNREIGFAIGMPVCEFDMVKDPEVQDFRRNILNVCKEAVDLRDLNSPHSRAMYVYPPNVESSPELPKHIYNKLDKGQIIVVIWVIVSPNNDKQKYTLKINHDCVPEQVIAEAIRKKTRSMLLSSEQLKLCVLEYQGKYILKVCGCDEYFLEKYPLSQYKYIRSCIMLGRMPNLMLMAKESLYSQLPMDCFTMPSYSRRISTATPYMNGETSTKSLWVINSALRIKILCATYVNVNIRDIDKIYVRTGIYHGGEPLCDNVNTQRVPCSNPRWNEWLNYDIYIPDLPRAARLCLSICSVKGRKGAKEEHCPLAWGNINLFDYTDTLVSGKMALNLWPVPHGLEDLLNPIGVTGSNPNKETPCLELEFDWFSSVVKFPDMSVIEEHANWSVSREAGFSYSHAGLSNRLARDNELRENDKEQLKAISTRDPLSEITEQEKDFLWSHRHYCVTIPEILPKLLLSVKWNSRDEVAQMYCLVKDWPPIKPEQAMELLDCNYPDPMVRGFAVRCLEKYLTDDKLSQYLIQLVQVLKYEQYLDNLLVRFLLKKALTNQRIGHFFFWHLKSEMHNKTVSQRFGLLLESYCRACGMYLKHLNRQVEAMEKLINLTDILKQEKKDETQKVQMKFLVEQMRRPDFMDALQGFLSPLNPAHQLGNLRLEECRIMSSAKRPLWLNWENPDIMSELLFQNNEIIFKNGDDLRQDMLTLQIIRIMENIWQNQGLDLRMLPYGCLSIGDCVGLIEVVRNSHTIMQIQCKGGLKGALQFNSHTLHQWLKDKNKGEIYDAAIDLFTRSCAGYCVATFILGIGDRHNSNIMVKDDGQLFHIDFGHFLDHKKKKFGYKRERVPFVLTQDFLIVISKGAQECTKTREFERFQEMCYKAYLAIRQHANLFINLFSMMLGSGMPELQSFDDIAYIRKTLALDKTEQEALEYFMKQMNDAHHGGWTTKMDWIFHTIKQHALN
Chain of PI3Ka (P27986 whole entry partner): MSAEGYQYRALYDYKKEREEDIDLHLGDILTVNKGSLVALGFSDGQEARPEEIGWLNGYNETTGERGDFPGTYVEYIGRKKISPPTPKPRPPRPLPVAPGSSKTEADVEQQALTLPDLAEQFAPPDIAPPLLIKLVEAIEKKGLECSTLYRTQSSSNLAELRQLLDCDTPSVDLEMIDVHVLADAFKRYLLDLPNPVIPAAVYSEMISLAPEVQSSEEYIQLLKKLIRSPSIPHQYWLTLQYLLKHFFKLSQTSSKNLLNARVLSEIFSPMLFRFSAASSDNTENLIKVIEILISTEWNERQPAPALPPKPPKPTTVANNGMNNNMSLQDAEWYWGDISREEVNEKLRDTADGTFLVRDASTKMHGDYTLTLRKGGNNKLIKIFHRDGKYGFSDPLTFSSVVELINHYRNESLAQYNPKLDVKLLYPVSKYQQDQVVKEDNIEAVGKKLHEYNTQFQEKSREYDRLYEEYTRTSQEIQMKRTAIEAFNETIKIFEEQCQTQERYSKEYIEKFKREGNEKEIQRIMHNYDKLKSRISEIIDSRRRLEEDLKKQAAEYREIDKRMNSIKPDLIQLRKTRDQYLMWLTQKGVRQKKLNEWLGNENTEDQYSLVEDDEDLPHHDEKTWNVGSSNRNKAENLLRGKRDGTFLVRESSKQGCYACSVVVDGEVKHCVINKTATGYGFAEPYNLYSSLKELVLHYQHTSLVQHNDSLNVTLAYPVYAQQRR
A significant benefit of this ratiometric method for quantitating reaction progress is the elimination of well-to-well variations in FRET-peptide concentration and signal intensities. As a result, the assay yields very high Z′-factor values (>0.7) at a low percent phosphorylation.
Both cleaved and uncleaved FRET-peptides contribute to the fluorescence signals and therefore to the Emission Ratio. The extent of phosphorylation of the FRET-peptide can be calculated from the Emission Ratio.
Enzyme: The ADAPTA universal kinase assay is a homogenous, fluorescent based immunoassay for the detection of ADP. In contrast to ATP depletion assays, the ADAPTA assay is extremely sensitive to ADP formation such that a majority of the signal change occurs in the first 10-20% conversion of ATP to ADP. This makes the ADAPTA universal kinase assay ideally suited for use with low activity kinases.
The principle of the ADAPTA universal kinase assay is outlined below. The assay itself can be divided into two phases: a kinase reaction phase, and an ADP detection phase. In the kinase reaction phase, all components required for the kinase reaction are added to the well, and the reaction is allowed to incubate for 60 minutes. After the reaction, a detection solution consisting of a europium labeled anti-ADP antibody, an AlexaFluor® 647 labeled ADP tracer, and EDTA (to stop the kinase reaction) is added to the assay well. ADP formed by the kinase reaction (in the absence of an inhibitor) will displace the Alexa Fluor®647 labeled ADP tracer from the antibody, resulting in a decrease in the TR-FRET signal.
Test Compounds: The Test Compounds are screened in 1% DMSO (final) in the well. For 10 point titrations, 3-fold serial dilutions are conducted from the starting concentration.
Peptide/Kinase Mixtures: All Peptide/Kinase Mixtures are diluted to a 2× working concentration in the appropriate Kinase Buffer.
ATP Solution: All ATP Solutions are diluted to a 4× working concentration in Kinase Buffer (50 mM HEPES pH 7.5, 0.01% BRIJ-35, 10 mM MgCl2, 1 mM EGTA). ATP Km apparent is previously determined using a Z′-LYTE® assay.
Development Reagent Solution: The Development Reagent is diluted in Development Buffer.
10× Novel PKC Lipid Mix: 2 mg/mL Phosphatidyl Serine, 0.2 mg/mL DAG in 20 mM HEPES, pH 7.4, 0.3% CHAPS. For 5 mL 10× Novel PKC Lipid Mix: 1. Add 10 mgs Phosphatidyl Serine (Avanti Polar Lipids Part #8400032C or 840039C) and 1 mg DAG (Avanti Polar Lipids Part #800811 C) to a glass tube. 2. Remove the chloroform from lipid mixture by evaporating to a clear, thin film under a stream of nitrogen. Continuous rotation of the tube, at an angle to ensure maximum surface area of the lipid solution, will promote the thinnest film. 3. Add 5 mLs resuspension buffer, 20 mM HEPES, 0.3% CHAPS, pH 7.4, to the dried lipid mix 4. Heat gently to 50-60° C. for 1-2 minutes and vortex in short intervals until the lipids are dissolved to a clear or slightly hazy solution. […]

Data set [2] addresses EGFR (Homo sapiens, UniProt P00533). Kind of data set: Z′-LYTE / ADAPTA kinase assay, EGFR. The data set is classed as biochemical.
From the text: as §1, with “Cleavage disrupts FRET between the donor (i.e., coumarin) and acceptor (i.e., fluorescein) fluorophores on the FRET-peptide, whereas uncleaved, phosphorylated FRET-peptides maintain FRET.” left out
(§2) A significant benefit of this ratiometric method for quantitating reaction progress is the elimination of well-to-well variations in FRET-peptide concentration and signal intensities. […]
(§3) Both cleaved and uncleaved FRET-peptides contribute to the fluorescence signals and therefore to the Emission Ratio. The extent of phosphorylation of the FRET-peptide can be calculated from the Emission Ratio. […]

Data set [3] addresses DNA-PK (Homo sapiens, UniProt P78527). As to the kind of experiment: Z′-LYTE / ADAPTA kinase assay, DNA-PK. Type of data set: biochemical. The conditions noted are these: read-out: DNA-PK % Inh. @ 100 nM.
From the text: as §1, with “Cleavage disrupts FRET between the donor (i.e., coumarin) and acceptor (i.e., fluorescein) fluorophores on the FRET-peptide, whereas uncleaved, phosphorylated FRET-peptides maintain FRET.” left out
as §2, §3

A short description of data set [4]: Solubility determination (PBS 7.4, SIF, SGF). The conditions noted are these: simulated intestinal fluid (SIF), fassgf or other biorelevant, kinetic from dmso stock, simulated intestinal fluid pH 6.8, 25° C., read-out: Solubility SIF. Type of data set: physicochemical. On the procedure: Preparation of stock solutions: The stock solutions of test compounds and control compound diclofenac were prepared in DMSO at the concentrations of 10 mM.
Simulated Gastric Fluid (SGF): An aqueous mixture including hydrochloric acid, sodium chloride, and pepsin (pH=1.2).
Simulated Intestinal Fluid (SIF): Prepared by dissolving 6.8 g of KH2PO4 into about 500 mL ultrapure water and adjust the solution to a pH 6.8 with 0.1 M NaOH. 10 g trypsin is then dissolved into ultrapure water. The two solutions are mixed well and diluted with ultrapure water to a final volume of 1000 mL.
485 μL of (SIF, SGF, PBS 7.4, FESSIF, or FESSGF) was added into each vial of the cap-less Solubility Sample plate. The assay was performed in duplicate. Add one stir stick to each vial and seal using a molded PTFE/Silicone plug. […] After completion of the 2 hours, plugs were removed and the stir sticks were removed using a big magnet, the samples from the Solubility Sample plate were transferred into the filter plate. Using the Vacuum Manifold, all the samples were filtered. Aliquot of 5 μL and 5 μL DMSO were taken from the filtrate followed by addition of 490 μL of a mixture of H2O and acetonitrile containing internal standard (1:1). A certain proportion of ultrapure water was used to dilute the diluent according to the peak shape. The dilution factor was changed according to the solubility values and the LC-MS signal response.
Preparation of 300 μM standards (STD): From the 10 mM DMSO STD plate, 6 μL was transferred into the remaining empty plate, and then 194 μL of DMSO was added to that plate to have a STD concentration of 300 μM. From the 300 μM DMSO STD plate, 5 μL DMSO STD and 5 μL SIF was transferred into the remaining empty plate, and then 490 μL of a mixture of H2O and acetonitrile containing internal standard (1:1) was added to that plate to have a final STD concentration of 3 μM. A certain proportion of ultrapure water was used to dilute the diluent according to the peak shape. The concentrations of the standard samples were changed according to the LC-MS signal response.
Procedure for sample analysis: The plate was placed into the well plate autosampler. The samples were evaluated by LC-MS/MS analysis.
Data analysis: All calculations were carried out using Microsoft Excel. The filtrate was analyzed and quantified against a standard of known concentration using LC coupled with mass spectral peak identification and quantitation. Solubility values of the test compound and control compound were calculated as follows: […]
Any value of the compounds that was not within the specified limits was rejected and the experiment was repeated.

Some results are limits rather than exact numbers.

Chain of EGFR (P00533 25-1210): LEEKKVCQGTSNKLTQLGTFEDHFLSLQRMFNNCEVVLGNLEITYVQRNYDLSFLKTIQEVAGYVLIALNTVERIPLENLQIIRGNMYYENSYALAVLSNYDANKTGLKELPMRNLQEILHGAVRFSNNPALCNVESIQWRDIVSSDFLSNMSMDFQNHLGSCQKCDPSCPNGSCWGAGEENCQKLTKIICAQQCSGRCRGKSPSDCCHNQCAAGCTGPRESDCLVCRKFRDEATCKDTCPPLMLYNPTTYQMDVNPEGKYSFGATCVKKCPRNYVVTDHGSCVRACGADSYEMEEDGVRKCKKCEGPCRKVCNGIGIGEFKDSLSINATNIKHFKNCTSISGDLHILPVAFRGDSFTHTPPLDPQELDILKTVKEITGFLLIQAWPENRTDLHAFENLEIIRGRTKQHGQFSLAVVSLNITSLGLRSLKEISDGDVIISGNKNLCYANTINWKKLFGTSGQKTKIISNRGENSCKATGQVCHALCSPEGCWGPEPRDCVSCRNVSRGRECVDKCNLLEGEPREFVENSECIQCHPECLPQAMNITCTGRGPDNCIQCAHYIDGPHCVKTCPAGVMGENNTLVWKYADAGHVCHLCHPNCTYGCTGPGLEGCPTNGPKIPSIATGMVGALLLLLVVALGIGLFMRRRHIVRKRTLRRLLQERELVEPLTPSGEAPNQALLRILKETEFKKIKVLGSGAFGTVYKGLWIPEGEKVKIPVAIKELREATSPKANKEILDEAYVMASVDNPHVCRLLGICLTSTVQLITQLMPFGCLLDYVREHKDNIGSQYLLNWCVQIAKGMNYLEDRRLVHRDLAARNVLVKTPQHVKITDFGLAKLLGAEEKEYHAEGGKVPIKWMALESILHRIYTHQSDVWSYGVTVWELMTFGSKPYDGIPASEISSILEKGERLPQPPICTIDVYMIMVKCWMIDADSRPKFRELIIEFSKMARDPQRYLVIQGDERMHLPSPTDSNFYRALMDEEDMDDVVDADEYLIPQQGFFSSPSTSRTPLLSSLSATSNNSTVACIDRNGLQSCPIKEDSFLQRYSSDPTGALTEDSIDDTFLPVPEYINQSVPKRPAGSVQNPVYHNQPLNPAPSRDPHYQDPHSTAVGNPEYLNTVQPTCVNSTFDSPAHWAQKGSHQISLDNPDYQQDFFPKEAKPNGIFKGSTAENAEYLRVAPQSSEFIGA

The IC50 is the concentration that inhibits the measured activity by half. Lower therefore signals inhibition by little substance. Broadly, the solubility is the dissolved amount per volume that the medium holds. As to `CS(=O)(=O)Nc1cncc(-c2ccc3ncnc(NCc4ccccc4)c3c2)c1` [Comparative Compound 3, reference compound], the IC50 in data set [1] and in data set [2] was 20 to 200 nM in each case. In addition, the inhibition at 0.1 µM is 80 to 90% in data set [1] (read-out: PI3Ka % Inh. @100 nM), > 90% in data set [2] (read-out: EGFR % Inh. @ 100 nM) and > 90% in data set [3]. In data set [4], the solubility at 2 h is ≤ 20 µM.
